Reference: the kinase profiling compilation of Christmann-Franck et al. (2016)

Key:
Experiment in all cases: KINOMEscan competition binding
Conditions in all cases: compound 2.0 µM
AKT1 (human) = AKT1 (human) (UniProt P31749)
AURKB (human) = AURKB (human) (UniProt Q96GD4)
AURKC (human) = AURKC (human) (UniProt Q9UQB9)
BMPR2 (human) = BMPR2 (human) (UniProt Q13873)
BRSK2 (human) = BRSK2 (human) (UniProt Q8IWQ3)
CAMK1D (human) = CAMK1D (human) (UniProt Q8IU85)
CDC42BPA (human) = CDC42BPA (human) (UniProt Q5VT25)
CDK13 (human) = CDK13 (human) (UniProt Q14004)
CDK17 (human) = CDK17 (human) (UniProt Q00537)
CDK4 CCND3 (human) = CDK4 CCND3 (human) (UniProt P11802+P30281)
CDK9 (human) = CDK9 (human) (UniProt P50750)
CDKL3 (human) = CDKL3 (human) (UniProt Q8IVW4)
CSK (human) = CSK (human) (UniProt P41240)
[1] = tested on: EIF2AK4 KD2 (human), Q9P2K8 [S808G]
EPHA2 (human) = EPHA2 (human) (UniProt P29317)
EPHB3 (human) = EPHB3 (human) (UniProt P54753)
FGR (human) = FGR (human) (UniProt P09769)
FLT3 (human) = FLT3 (human) (UniProt P36888)
[2] = tested on: FLT3 (human), P36888 [R834Q]
FLT4 (human) = FLT4 (human) (UniProt P35916)
LIMK1 (human) = LIMK1 (human) (UniProt P53667)
LRRK2 (human) = LRRK2 (human) (UniProt Q5S007)
MAP2K5 (human) = MAP2K5 (human) (UniProt Q13163)
MYLK3 (human) = MYLK3 (human) (UniProt Q32MK0)
NEK6 (human) = NEK6 (human) (UniProt Q9HC98)
PDGFRA (human) = PDGFRA (human) (UniProt P16234)
PI4KB (human) = PI4KB (human) (UniProt Q9UBF8)
PRKAA1 (human) = PRKAA1 (human) (UniProt Q13131)
PRKACA (human) = PRKACA (human) (UniProt P17612)
PRKACB (human) = PRKACB (human) (UniProt P22694)
PRKCE (human) = PRKCE (human) (UniProt Q02156)
PRKG1 (human) = PRKG1 (human) (UniProt Q13976)
RIOK1 (human) = RIOK1 (human) (UniProt Q9BRS2)
RIPK2 (human) = RIPK2 (human) (UniProt O43353)
ROCK2 (human) = ROCK2 (human) (UniProt O75116)
RPS6KA6 KD1 (human) = RPS6KA6 KD1 (human) (UniProt Q9UK32)
SIK3 (human) = SIK3 (human) (UniProt Q9Y2K2)
SRPK3 (human) = SRPK3 (human) (UniProt Q9UPE1)
SYK (human) = SYK (human) (UniProt P43405)
TEK (human) = TEK (human) (UniProt Q02763)
TXK (human) = TXK (human) (UniProt P42681)
TYRO3 (human) = TYRO3 (human) (UniProt Q06418)
YES1 (human) = YES1 (human) (UniProt P07947)

EPHA2 (human), sequence (P29317 whole entry, looked up): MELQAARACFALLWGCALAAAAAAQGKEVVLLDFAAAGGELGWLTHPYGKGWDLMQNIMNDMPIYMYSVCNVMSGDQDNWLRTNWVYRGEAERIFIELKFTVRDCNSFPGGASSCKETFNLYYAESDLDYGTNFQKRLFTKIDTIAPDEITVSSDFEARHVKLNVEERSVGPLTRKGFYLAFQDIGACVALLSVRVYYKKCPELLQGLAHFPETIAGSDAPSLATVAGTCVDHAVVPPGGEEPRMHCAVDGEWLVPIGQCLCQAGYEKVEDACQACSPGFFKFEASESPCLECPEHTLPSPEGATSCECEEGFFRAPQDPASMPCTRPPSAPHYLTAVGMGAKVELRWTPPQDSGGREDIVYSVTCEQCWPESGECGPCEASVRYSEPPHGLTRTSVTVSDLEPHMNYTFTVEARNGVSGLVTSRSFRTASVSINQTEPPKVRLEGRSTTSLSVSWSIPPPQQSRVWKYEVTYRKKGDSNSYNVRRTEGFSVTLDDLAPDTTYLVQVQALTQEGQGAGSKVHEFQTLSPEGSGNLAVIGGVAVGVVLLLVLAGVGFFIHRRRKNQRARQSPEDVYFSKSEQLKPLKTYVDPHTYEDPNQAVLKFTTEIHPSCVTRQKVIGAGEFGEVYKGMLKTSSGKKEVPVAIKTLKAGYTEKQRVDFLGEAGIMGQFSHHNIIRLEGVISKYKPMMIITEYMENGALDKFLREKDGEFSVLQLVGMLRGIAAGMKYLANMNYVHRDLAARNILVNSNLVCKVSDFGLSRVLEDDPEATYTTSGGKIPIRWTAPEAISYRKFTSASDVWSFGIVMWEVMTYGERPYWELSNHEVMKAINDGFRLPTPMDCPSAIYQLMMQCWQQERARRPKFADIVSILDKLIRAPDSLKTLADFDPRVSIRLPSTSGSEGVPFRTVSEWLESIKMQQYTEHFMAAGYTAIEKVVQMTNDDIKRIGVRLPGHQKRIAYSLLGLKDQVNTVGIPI
LIMK1 (human), sequence (P53667 whole entry, looked up): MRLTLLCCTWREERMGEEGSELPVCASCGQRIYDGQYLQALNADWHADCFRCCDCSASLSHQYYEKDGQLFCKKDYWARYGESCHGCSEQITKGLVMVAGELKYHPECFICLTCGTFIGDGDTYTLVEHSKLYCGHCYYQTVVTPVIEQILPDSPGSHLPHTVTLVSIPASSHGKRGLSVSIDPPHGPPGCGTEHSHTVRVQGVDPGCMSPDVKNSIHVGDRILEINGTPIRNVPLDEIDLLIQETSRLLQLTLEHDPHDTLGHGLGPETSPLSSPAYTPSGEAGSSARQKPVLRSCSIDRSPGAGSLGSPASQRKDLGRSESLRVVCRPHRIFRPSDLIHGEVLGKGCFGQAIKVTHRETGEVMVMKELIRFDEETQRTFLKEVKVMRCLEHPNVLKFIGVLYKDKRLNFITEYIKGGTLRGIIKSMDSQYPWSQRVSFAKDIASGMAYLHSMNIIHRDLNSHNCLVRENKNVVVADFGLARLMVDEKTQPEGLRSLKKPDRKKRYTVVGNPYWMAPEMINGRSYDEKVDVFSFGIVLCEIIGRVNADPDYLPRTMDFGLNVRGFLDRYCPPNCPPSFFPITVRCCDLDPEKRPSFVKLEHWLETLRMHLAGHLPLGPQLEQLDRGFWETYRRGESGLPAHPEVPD
BMPR2 (human), sequence (Q13873 whole entry, looked up): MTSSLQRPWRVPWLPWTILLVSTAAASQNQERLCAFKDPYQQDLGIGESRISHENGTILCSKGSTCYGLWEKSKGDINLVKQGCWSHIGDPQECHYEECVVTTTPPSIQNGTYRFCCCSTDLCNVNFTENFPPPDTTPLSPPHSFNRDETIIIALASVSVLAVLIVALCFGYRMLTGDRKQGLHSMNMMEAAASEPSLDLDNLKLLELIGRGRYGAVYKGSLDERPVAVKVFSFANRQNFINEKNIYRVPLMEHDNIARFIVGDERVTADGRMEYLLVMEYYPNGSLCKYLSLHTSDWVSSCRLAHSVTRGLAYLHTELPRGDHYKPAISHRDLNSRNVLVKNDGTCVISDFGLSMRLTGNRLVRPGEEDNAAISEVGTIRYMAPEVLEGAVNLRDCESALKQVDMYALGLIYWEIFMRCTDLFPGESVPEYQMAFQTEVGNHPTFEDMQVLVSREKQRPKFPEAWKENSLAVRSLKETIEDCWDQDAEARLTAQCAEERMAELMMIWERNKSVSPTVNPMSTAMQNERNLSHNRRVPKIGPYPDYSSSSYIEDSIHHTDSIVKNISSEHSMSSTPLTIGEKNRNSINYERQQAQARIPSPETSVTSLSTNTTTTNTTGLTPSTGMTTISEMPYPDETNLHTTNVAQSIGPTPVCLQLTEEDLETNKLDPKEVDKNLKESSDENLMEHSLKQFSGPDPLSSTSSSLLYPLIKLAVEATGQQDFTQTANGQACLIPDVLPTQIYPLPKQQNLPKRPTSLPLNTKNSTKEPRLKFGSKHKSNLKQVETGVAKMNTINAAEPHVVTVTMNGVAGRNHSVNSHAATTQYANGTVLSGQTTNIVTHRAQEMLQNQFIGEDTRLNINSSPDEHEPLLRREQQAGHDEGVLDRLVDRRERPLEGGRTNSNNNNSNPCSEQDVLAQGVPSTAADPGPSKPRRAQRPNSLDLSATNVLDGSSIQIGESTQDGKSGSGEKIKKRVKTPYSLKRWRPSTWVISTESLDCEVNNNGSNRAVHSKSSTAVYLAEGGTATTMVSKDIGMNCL
EPHB3 (human), sequence (P54753 whole entry, looked up): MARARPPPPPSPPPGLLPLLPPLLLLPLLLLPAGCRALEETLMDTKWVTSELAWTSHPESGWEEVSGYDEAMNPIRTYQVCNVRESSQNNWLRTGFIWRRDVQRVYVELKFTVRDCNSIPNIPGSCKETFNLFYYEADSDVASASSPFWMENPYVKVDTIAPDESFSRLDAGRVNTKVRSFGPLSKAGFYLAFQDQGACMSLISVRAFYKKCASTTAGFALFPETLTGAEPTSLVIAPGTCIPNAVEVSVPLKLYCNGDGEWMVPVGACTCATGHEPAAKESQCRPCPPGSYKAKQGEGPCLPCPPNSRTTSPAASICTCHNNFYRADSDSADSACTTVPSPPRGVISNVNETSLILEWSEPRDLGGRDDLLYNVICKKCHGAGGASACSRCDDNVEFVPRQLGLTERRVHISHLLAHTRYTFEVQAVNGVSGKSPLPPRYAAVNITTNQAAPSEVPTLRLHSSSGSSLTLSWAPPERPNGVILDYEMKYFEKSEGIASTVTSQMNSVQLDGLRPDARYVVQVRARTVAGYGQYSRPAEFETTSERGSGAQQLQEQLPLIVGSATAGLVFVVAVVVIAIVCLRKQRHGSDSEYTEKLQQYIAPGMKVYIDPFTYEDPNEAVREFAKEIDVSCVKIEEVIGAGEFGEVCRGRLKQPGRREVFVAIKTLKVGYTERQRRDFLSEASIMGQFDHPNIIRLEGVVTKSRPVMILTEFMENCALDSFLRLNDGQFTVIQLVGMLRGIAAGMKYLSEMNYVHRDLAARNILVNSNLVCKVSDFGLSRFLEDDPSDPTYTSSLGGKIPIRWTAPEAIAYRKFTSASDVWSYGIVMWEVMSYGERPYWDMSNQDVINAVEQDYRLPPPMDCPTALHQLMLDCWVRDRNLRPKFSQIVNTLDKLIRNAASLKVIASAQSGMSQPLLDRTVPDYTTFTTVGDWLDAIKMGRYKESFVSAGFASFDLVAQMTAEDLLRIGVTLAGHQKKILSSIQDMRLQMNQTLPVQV
BRSK2 (human), sequence (Q8IWQ3 whole entry, looked up): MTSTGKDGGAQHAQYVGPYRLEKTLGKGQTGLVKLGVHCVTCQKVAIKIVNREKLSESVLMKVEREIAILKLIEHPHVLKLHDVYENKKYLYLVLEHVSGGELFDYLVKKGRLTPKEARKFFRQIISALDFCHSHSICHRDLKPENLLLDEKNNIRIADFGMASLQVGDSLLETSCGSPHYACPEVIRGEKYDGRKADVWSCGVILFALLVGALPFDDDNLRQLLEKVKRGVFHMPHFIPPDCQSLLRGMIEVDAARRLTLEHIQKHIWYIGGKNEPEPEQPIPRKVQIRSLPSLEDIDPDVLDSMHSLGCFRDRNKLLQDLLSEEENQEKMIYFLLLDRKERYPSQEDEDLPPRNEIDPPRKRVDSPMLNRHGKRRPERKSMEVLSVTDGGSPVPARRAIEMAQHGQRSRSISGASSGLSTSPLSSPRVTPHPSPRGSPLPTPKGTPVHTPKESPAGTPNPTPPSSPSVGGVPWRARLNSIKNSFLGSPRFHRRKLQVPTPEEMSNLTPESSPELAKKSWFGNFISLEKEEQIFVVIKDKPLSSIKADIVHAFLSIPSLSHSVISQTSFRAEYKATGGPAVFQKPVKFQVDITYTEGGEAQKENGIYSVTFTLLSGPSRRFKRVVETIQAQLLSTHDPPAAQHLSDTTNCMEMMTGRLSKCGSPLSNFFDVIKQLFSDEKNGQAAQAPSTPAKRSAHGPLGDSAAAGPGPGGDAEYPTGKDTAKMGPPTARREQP
PRKG1 (human), sequence (Q13976 whole entry, looked up): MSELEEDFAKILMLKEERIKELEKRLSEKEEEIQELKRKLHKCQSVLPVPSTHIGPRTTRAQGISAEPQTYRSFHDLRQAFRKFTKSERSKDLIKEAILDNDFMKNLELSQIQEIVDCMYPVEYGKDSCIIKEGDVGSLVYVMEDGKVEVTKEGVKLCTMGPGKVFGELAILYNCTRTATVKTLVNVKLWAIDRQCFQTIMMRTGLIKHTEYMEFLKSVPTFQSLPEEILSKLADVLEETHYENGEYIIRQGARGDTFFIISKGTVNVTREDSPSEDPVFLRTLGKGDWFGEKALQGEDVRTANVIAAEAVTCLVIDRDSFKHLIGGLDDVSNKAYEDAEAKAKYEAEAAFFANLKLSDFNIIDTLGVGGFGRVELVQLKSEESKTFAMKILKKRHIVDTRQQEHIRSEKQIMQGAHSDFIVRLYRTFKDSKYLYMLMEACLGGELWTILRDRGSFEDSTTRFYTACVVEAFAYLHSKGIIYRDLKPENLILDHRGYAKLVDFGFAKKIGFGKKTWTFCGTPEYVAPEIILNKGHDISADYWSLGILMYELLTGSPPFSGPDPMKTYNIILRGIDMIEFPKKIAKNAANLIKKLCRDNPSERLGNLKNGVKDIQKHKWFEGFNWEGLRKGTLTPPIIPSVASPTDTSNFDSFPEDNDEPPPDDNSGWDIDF

In the case of `N#Cc1ccc2ncnc(NCCc3ccc4ccccc4c3)c2c1`, the kinase still bound, per cent of control (AKT1 (human)) was 81%, the kinase still bound, per cent of control (AURKB (human)) was 79% and the kinase still bound, per cent of control (AURKC (human)) was 84%. For the same compound, the kinase still bound, per cent of control (BMPR2 (human)) was 100%, the kinase still bound, per cent of control (BRSK2 (human)) was 100% and the kinase still bound, per cent of control (CAMK1D (human)) was 100%. The kinase still bound, per cent of control (CDC42BPA (human)) was 100%, the kinase still bound, per cent of control (CDK13 (human)) was 100% and the kinase still bound, per cent of control (CDK17 (human)) was 90%. For the same compound, the kinase still bound, per cent of control (CDK4 CCND3 (human)) was 100%, the kinase still bound, per cent of control (CDK9 (human)) was 100% and the kinase still bound, per cent of control (CDKL3 (human)) was 100%. The kinase still bound, per cent of control (CSK (human)) was 100%, the kinase still bound, per cent of control [1] was 80% and the kinase still bound, per cent of control (EPHA2 (human)) was 100%. For the same compound, the kinase still bound, per cent of control (EPHB3 (human)) was 100%, the kinase still bound, per cent of control (FGR (human)) was 100% and the kinase still bound, per cent of control (FLT3 (human)) was 79%. The kinase still bound, per cent of control [2] was 100%, the kinase still bound, per cent of control (FLT4 (human)) was 100% and the kinase still bound, per cent of control (LIMK1 (human)) was 100%. The kinase still bound, per cent of control (LRRK2 (human)) was 85%, the kinase still bound, per cent of control (MAP2K5 (human)) was 85% and the kinase still bound, per cent of control (MYLK3 (human)) was 79%. The kinase still bound, per cent of control (NEK6 (human)) was 96%, the kinase still bound, per cent of control (PDGFRA (human)) was 92% and the kinase still bound, per cent of control (PI4KB (human)) was 95%. It also gave a kinase still bound, per cent of control (PRKAA1 (human)) of 89%, a kinase still bound, per cent of control (PRKACA (human)) of 100% and a kinase still bound, per cent of control (PRKACB (human)) of 100%. For the same compound, the kinase still bound, per cent of control (PRKCE (human)) was 100%, the kinase still bound, per cent of control (PRKG1 (human)) was 85% and the kinase still bound, per cent of control (RIOK1 (human)) was 71%. The kinase still bound, per cent of control (RIPK2 (human)) was 100%, the kinase still bound, per cent of control (ROCK2 (human)) was 92% and the kinase still bound, per cent of control (RPS6KA6 KD1 (human)) was 100%. The kinase still bound, per cent of control (SIK3 (human)) was 100%, the kinase still bound, per cent of control (SRPK3 (human)) was 86% and the kinase still bound, per cent of control (SYK (human)) was 100%. For the same compound, the kinase still bound, per cent of control (TEK (human)) was 100%, the kinase still bound, per cent of control (TXK (human)) was 94% and the kinase still bound, per cent of control (TYRO3 (human)) was 87%. For the same compound, the kinase still bound, per cent of control (YES1 (human)) was 86%.
